Consider 23 compounds from patent US10100022B2, “Sphingosine kinase inhibitors” (University of Virginia Patent Foundation, priority 2014, dated 2018).

pKi: −log10 of the molar value. Where a name gives a salt, the structure may show the parent alone.

The target in experiment [1] is T1, human sphingosine kinase type 1 (hSPHK1) (Homo sapiens, UniProt Q9NYA1).
T1 construct: made in house; host or cells: Sf9 insect cells (baculovirus)
In words: Sphingosine kinase assay, recombinant human SPHK1 ([32P]S1P product, scintillation counting). Particulars: read-out: activity hSPHK1 (range estimate of KI). The class given is biochemical. In outline: (§1)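 SPHK1 from cleared lysates of baculovirus-infected Sf9 cells, unpurified; SPHK2 partially purified from Sf9 lysates. Standard sphingosine kinase protocol; [32P]S1P product captured on cation exchange paper and counted by scintillation.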

Experiment [2] concerns the target T2, human sphingosine kinase type 2 (hSPHK2) (Homo sapiens, UniProt Q9NRA0).
T2 construct: purchased; host or cells: Sf9 insect cells (baculovirus)
T2 sequence (Q9NRA0 1-654): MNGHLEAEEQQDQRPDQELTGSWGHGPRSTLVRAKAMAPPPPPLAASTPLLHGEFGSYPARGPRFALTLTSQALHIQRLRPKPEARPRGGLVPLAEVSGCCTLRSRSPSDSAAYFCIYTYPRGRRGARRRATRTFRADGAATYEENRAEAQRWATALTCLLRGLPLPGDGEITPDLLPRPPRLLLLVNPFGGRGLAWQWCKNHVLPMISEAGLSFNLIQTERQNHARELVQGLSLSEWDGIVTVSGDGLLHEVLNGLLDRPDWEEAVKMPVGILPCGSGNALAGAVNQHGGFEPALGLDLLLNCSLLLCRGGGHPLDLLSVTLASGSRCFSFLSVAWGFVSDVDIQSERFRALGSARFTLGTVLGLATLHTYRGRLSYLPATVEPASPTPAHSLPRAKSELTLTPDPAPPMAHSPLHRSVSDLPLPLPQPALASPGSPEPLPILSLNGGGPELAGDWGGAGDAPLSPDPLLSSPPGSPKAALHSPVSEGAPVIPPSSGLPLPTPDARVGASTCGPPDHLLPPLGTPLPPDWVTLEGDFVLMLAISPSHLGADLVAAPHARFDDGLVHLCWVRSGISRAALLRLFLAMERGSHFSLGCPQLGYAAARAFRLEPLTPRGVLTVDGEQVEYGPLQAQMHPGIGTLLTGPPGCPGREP
In words: Sphingosine kinase assay, recombinant human SPHK2 ([32P]S1P product, scintillation counting). The class given is biochemical. To be noted: read-out: activity hSPHK2 (range estimate of KI). In outline:
as §1

T1 sequence (Q9NYA1 whole entry): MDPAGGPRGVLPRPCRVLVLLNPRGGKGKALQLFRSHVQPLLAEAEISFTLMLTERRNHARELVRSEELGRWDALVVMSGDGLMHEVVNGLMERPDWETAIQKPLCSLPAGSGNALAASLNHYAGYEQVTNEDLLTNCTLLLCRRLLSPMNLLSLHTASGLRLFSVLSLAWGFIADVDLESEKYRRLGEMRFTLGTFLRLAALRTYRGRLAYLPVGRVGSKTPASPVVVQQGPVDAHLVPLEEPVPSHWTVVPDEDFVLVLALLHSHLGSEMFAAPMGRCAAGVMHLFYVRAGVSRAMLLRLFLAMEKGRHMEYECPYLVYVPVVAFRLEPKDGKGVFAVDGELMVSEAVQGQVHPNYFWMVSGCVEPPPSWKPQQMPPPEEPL

Take `N=C(N)N1CCC[C@H]1c1nc(-c2ccc3cc(OCc4cccc(C(F)(F)F)c4)ccc3c2)no1` [Compound 67A, (S)-amino(2-(3-(6-((3-(trifluoromethyl)benzyl)oxy)naphthalen-2-yl)-1,2,4-oxadiazol-5-yl)pyrrolidin-1-yl)methaniminium chloride]: the values for the pKi in experiment [1] and in experiment [2] were under 5.00 and 5.00 to 6.00, respectively.

Turning to `N=C(N)N1CCC[C@H]1c1nc(-c2ccc3cc(OCc4cccc(Cl)c4)ccc3c2)no1` [Compound 68A, (S)-amino(2-(3-(6-((3-chlorobenzyl)oxy)naphthalen-2-yl)-1,2,4-oxadiazol-5-yl)pyrrolidin-1-yl)methaniminium chloride], the pKi in experiment [1] and in experiment [2] was under 5.00 each time.

Consider `N=C(N)N1CCC[C@H]1c1nc(-c2ccc3cc(OCc4ccc(Cl)cc4)ccc3c2)no1` [Compound 69A, (S)-amino(2-(3-(6-((4-chlorobenzyl)oxy)naphthalen-2-yl)-1,2,4-oxadiazol-5-yl)pyrrolidin-1-yl)methaniminium chloride], for which the pKi in experiment [1] and in experiment [2] was under 5.00 throughout.

Take `N#Cc1ccc(COc2ccc3cc(-c4noc([C@@H]5CCCN5C(=N)N)n4)ccc3c2)cc1` [Compound 70A, (S)-amino(2-(3-(6-((4-cyanobenzyl)oxy)naphthalen-2-yl)-1,2,4-oxadiazol-5-yl)pyrrolidin-1-yl)methaniminium chloride]: the pKi (as a rule, −log10 of the Ki, conventionally taken in molar units) is under 5.00 in experiment [1] and 5.00 to 6.00 in experiment [2].

Consider `N=C(N)N1CCC[C@H]1c1nc(-c2ccc3cc(OCc4ccc(-c5ccccc5)cc4)ccc3c2)no1` [Compound 72A, (S)-(2-(3-(6-([1,1′-biphenyl]-4-ylmethoxy)naphthalen-2-yl)-1,2,4-oxadiazol-5-yl)pyrrolidin-1-yl)(amino)methaniminium chloride], for which the pKi in experiment [1] was under 5.00; in experiment [2], 5.00 to 6.00.

For the compound `N=C(N)N1CCC[C@H]1c1nc(-c2ccc3cc(OCc4ccccc4)ccc3c2)no1` [Compound 73A, (S)-amino(2-(3-(6-(benzyloxy)naphthalen-2-yl)-1,2,4-oxadiazol-5-yl)pyrrolidin-1-yl)methaniminium chloride], the pKi in experiment [1] and in experiment [2] was under 5.00 throughout.

With `CCCCCCCCn1cc(-c2noc([C@@H]3CCCN3C(=N)N)n2)c2ccccc21` [Compound 74A, (S)-amino(2-(3-(1-octyl-1H-indol-3-yl)-1,2,4-oxadiazol-5-yl)pyrrolidin-1-yl)methaniminium chloride], the values for the pKi in experiment [1] and in experiment [2] were under 5.00 and 5.00 to 6.00, respectively.

Regarding `CCCCCCCCn1ccc2ccc(-c3noc([C@@H]4CCCN4C(=N)N)n3)cc21` [Compound 75A, (S)-amino(2-(3-(1-octyl-1H-indol-6-yl)-1,2,4-oxadiazol-5-yl)pyrrolidin-1-yl)methaniminium chloride], the pKi in experiment [1] and in experiment [2] was under 5.00 in each case.

Regarding `N=C(N)N1CCC[C@H]1c1nc(-c2ccc(CCC3CCCCC3)c(C(F)(F)F)c2)no1` [Compound 76A, (S)-amino(2-(3-(4-(2-cyclohexylethyl)-3-(trifluoromethyl)phenyl)-1,2,4-oxadiazol-5-yl)pyrrolidin-1-yl)methaniminium 2,2,2-trifluoroacetate], the pKi was under 5.00 in experiment [1] and over 6.00 in experiment [2].

As to `C=CCOc1ccc(-c2noc([C@@H]3CCCN3C(=N)N)n2)cc1C(F)(F)F` [Compound 77A, (S)-2-(3-(4-(allyloxy)-3-(trifluoromethyl)phenyl)-1,2,4-oxadiazol-5-yl)pyrrolidine-1-carboximidamide hydrochloride], the pKi in experiment [1] and in experiment [2] was under 5.00 each time.

For `CCCC/C=C/COc1ccc(-c2noc([C@@H]3CCCN3C(=N)N)n2)cc1C(F)(F)F` [Compound 78A, (S,E)-amino(2-(3-(4-(hept-2-en-1-yloxy)-3-(trifluoromethyl)phenyl)-1,2,4-oxadiazol-5-yl)pyrrolidin-1-yl)methaniminium 2,2,2-trifluoroacetate], the pKi in experiment [1] is under 5.00; in experiment [2], over 6.00.

`C=CCCOc1ccc(-c2noc([C@@H]3CCCN3C(=N)N)n2)cc1C(F)(F)F` [Compound 79A, (S)-2-(3-(4-(but-3-en-1-yloxy)-3-(trifluoromethyl)phenyl)-1,2,4-oxadiazol-5-yl)pyrrolidine-1-carboximidamide hydrochloride]: the pKi in experiment [1] and in experiment [2] was under 5.00 in each case.

As to `CCCC=CCOc1ccc(-c2noc([C@@H]3CCCN3C(=N)N)n2)cc1C(F)(F)F` [Compound 80A, (S)-amino(2-(3-(4-(hex-2-en-1-yloxy)-3-(trifluoromethyl)phenyl)-1,2,4-oxadiazol-5-yl)pyrrolidin-1-yl)methaniminium 2,2,2-trifluoroacetate], the negative logarithm of the Ki (pKi) in experiment [1] is under 5.00; in experiment [2], 5.00 to 6.00.

For the compound `CCCCC=CCOc1ccc(-c2noc([C@@H]3CCCN3C(=N)N)n2)cc1C(F)(F)F` [Compound 81A, (S)-amino(2-(3-(4-(hept-2-en-1-yloxy)-3-(trifluoromethyl)phenyl)-1,2,4-oxadiazol-5-yl)pyrrolidin-1-yl)methaniminium 2,2,2-trifluoroacetate], the pKi in experiment [1] was under 5.00; in experiment [2] it was over 6.00.

In the case of `CCCCCC=CCOc1ccc(-c2noc([C@@H]3CCCN3C(=N)N)n2)cc1C(F)(F)F` [Compound 82A, (S)-amino(2-(3-(4-(oct-2-en-1-yloxy)-3-(trifluoromethyl)phenyl)-1,2,4-oxadiazol-5-yl)pyrrolidin-1-yl)methaniminium 2,2,2-trifluoroacetate], the pKi in experiment [1] is under 5.00; in experiment [2], over 6.00.

In the case of `CCC/C=C\CCOc1ccc(-c2noc([C@@H]3CCCN3C(=N)N)n2)cc1C(F)(F)F` [Compound 84A, (S,Z)-amino(2-(3-(4-(hept-3-en-1-yloxy)-3-(trifluoromethyl)phenyl)-1,2,4-oxadiazol-5-yl)pyrrolidin-1-yl)methaniminium 2,2,2-trifluoroacetate], the pKi in experiment [1] was under 5.00; in experiment [2] it was over 6.00.

In the case of `CCCC/C=C\CCOc1ccc(-c2noc([C@@H]3CCCN3C(=N)N)n2)cc1C(F)(F)F` [Compound 85A, (S,Z)-amino(2-(3-(4-(oct-3-en-1-yloxy)-3-(trifluoromethyl)phenyl)-1,2,4-oxadiazol-5-yl)pyrrolidin-1-yl)methaniminium 2,2,2-trifluoroacetate], the values for the pKi in experiment [1] and in experiment [2] were under 5.00 and over 6.00, respectively.

Take `N=C(N)N1CCC[C@H]1c1nc(-c2ccc(OC/C=C/c3cccc(Br)c3)c(C(F)(F)F)c2)no1` [Compound 86A, (S,E)-2-(3-(4-((3-(3-bromophenyl)allyl)oxy)-3-(trifluoromethyl)phenyl)-1,2,4-oxadiazol-5-yl)pyrrolidine-1-carboximidamide hydrochloride]: the results for the pKi in experiment [1] and in experiment [2] were under 5.00 and over 6.00, respectively.

For `N=C(N)N1CCC[C@H]1c1nc(-c2ccc(OC/C=C/c3ccc(F)cc3)c(C(F)(F)F)c2)no1` [Compound 87A, (S,E)-2-(3-(4-((3-(4-fluorophenyl)allyl)oxy)-3-(trifluoromethyl)phenyl)-1,2,4-oxadiazol-5-yl)pyrrolidine-1-carboximidamide hydrochloride], the figures for the pKi in experiment [1] and in experiment [2] were under 5.00 and over 6.00, respectively.

`N=C(N)N1CCC[C@H]1c1nc(-c2ccc(OC/C=C/c3ccc(C(F)(F)F)cc3)c(C(F)(F)F)c2)no1` [Compound 88A, (S,E)-amino(2-(3-(3-(trifluoromethyl)-4-((3-(4-(trifluoromethyl)phenyl)allyl)oxy)phenyl)-1,2,4-oxadiazol-5-yl)pyrrolidin-1-yl)methaniminium 2,2,2-trifluoroacetate]: the pKi in experiment [1] is under 5.00; in experiment [2], over 6.00.

On to `N=C(N)N1CCC[C@H]1c1nc(-c2ccc(OC/C=C/c3ccccc3C(F)(F)F)c(C(F)(F)F)c2)no1` [Compound 89A, (S,E)-2-(3-(3-(trifluoromethyl)-4-((3-(2-(trifluoromethyl)phenyl)allyl)oxy)phenyl)-1,2,4-oxadiazol-5-yl)pyrrolidine-1-carboximidamide hydrochloride], for which the pKi in experiment [1] and in experiment [2] was under 5.00 in each case.

Take `N=C(N)N1CCC[C@H]1c1nc(-c2ccc(OC/C=C/c3cccc(C(F)(F)F)c3)c(C(F)(F)F)c2)no1` [Compound 90A, (S,E)-amino(2-(3-(3-(trifluoromethyl)-4-((3-(3-(trifluoromethyl)phenyl)allyl)oxy)phenyl)-1,2,4-oxadiazol-5-yl)pyrrolidin-1-yl)methaniminium 2,2,2-trifluoroacetate]: the values for the pKi in experiment [1] and in experiment [2] were under 5.00 and over 6.00, respectively.

As to `N=C(N)N1CCC[C@H]1c1nc(-c2ccc(OCC/C=C/c3ccc(C(F)(F)F)cc3)c(C(F)(F)F)c2)no1` [Compound 91A, (S,E)-2-(3-(3-(trifluoromethyl)-4-((4-(4-(trifluoromethyl)phenyl)but-3-en-1-yl)oxy)phenyl)-1,2,4-oxadiazol-5-yl)pyrrolidine-1-carboximidamide hydrochloride], the results for the pKi in experiment [1] and in experiment [2] were under 5.00 and over 6.00, respectively.
